Reference: US10597388B2, “Pyridazinone herbicides” (FMC CORPORATION, priority 2014, dated 2020)

Experiments:
Format in all cases: in vivo
[1] = test system: barnyardgrass (Echinochloa crus-galli); assay: Test A greenhouse herbicide test, pre- and postemergence
How it was run: (§1)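 Visual injury ratings, 0 (no effect) to 100 (complete control), versus untreated plants after roughly 10 d in a greenhouse. Compounds, formulated in a surfactant-containing non-phytotoxic solvent, were sprayed on loam–sand soil after sowing (pre) or on one- to two-leaf plants 2–10 cm tall (post).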

[2] = test system: corn (Zea mays); assay: as above; details: Postemergence; for Corn plant response rating: 0 to 100 scale, 0 is no effect, 100 is complete control
How it was run: as §1

[3] = test system: foxtail, giant (giant foxtail, Setaria faberii); assay: as above
How it was run: as §1

[4] = test system: kochia (Kochia scoparia); assay: as above
How it was run: as §1

[5] = test system: pigweed (Amaranthus retroflexus); assay: as above
How it was run: as §1

[6] = test system: ragweed (common ragweed, Ambrosia elatior); assay: as above
How it was run: as §1

[7] = test system: ryegrass, Italian (Italian ryegrass, Lolium multiflorum); assay: as above
How it was run: as §1

[8] = test system: wheat (Triticum aestivum); assay: as above; details: Postemergence; for Wheat plant response rating: 0 to 100 scale, 0 is no effect, 100 is complete control
How it was run: as §1

[9] = test system: blackgrass (Alopecurus myosuroides); assay: Test A greenhouse herbicide test, postemergence; details: for Plant response rating, Blackgrass: 125 g ai/ha, 0 to 100 scale where 0 is no effect and 100 is complete control; for Blackgrass plant response rating: 500 g ai/ha, 0 to 100 scale, 0 is no effect, 100 is complete control
How it was run: (§2)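 Seedlings in a loam soil and sand mix received formulated compound postemergence at the one- to two-leaf stage. Greenhouse holding lasts approximately 10 d, then injury is scored visually relative to untreated plants, 0 meaning no effect and 100 complete control.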

[10] = test system: galium (catchweed bedstraw, Galium aparine); assay: Test A greenhouse herbicide test, postemergence; details: for Galium plant response rating: 0 to 100 scale, 0 is no effect, 100 is complete control
How it was run: as §2

[11] = test system: kochia (Kochia scoparia); assay: Test C greenhouse herbicide test, postemergence
How it was run: (§3)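 Test chemicals were applied postemergence to greenhouse plants at the 1- to 4-leaf stage (2–18 cm tall) growing in peat/vermiculite medium. After 13–15 d, injury was rated visually against untreated controls on a 0–100 scale (0 = no effect, 100 = complete control).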

[12] = test system: oat, wild (wild oat, Avena fatua); assay: Test C greenhouse herbicide test, postemergence
How it was run: as §3

[13] = Postemergence, 125 g ai/ha, 0 to 100 scale where 0 is no effect and 100 is complete control
[14] = Postemergence, 500 g ai/ha, 0 to 100 scale, 0 is no effect, 100 is complete control
[15] = Preemergence, 125 g ai/ha, 0 to 100 scale where 0 is no effect and 100 is complete control
[16] = Preemergence, 500 g ai/ha, 0 to 100 scale where 0 is no effect and 100 is complete control
[17] = 125 g ai/ha, 0 to 100 scale where 0 is no effect and 100 is complete control
[18] = Postemergence, 125 g ai/ha, scale 0 to 100, 0 is no effect, 100 is complete control
[19] = Postemergence, 250 g ai/ha, scale 0 to 100, 0 no effect, 100 complete control, 13 to 15 d
[20] = postemergence, 62 g ai/ha, scale 0 to 100, 0 no effect, 100 complete control
[21] = Preemergence, 500 g ai/ha, 0 to 100 scale, 0 no effect, 100 complete control
[22] = Postemergence, 31 g ai/ha, 0 to 100 scale (0 no effect, 100 complete control)
[23] = 500 g ai/ha, visual rating after approx. 10 d, 0 to 100 scale (0 no effect, 100 complete control)
[24] = Postemergence, 500 g ai/ha, visual rating after approx. 10 d, 0 to 100 scale (0 no effect, 100 complete control)
[25] = Postemergence, 31 g ai/ha, scale 0 to 100 (0 no effect, 100 complete control)

SMILES: CCOC(=O)Oc1c(C)nn(C)c(=O)c1-c1c(C)sc2ccc(C)cc12 [Compound 82]
- Plant response rating, Barnyardgrass [1, 13]: 30
- Barnyardgrass plant response rating [1, 14]: 50
- Barnyardgrass plant response rating [1, 15]: 40
- Plant response rating, Barnyardgrass [1, 16]: 70
- Plant response rating, Corn [2, 17]: 0
- Corn plant response rating ([2]; 500 g ai/ha): 0
- Plant response rating, Foxtail, Giant [3, 13]: 50
- Foxtail, Giant plant response rating [3, 14]: 70
- Foxtail, Giant plant response rating [3, 15]: 70
- Plant response rating, Foxtail, Giant [3, 16]: 90
- Plant response rating, Kochia [4, 13]: 30
- Kochia plant response rating [4, 14]: 80
- Kochia plant response rating [4, 15]: 70
- Plant response rating, Kochia [4, 16]: 90
- Plant response rating, Pigweed [5, 13]: 60
- Pigweed plant response rating [5, 14]: 80
- Pigweed plant response rating [5, 15]: 100
- Plant response rating, Pigweed [5, 16]: 100
- Plant response rating, Ragweed [6, 13]: 70
- Ragweed plant response rating [6, 14]: 70
- Ragweed plant response rating [6, 15]: 80
- Plant response rating, Ragweed [6, 16]: 80
- Plant response rating, Ryegrass, Italian [7, 13]: 70
- Ryegrass, Italian plant response rating [7, 14]: 80
- Ryegrass, Italian plant response rating [7, 15]: 80
- Plant response rating, Ryegrass, Italian [7, 16]: 90
- Plant response rating, Wheat [8, 17]: 0
- Wheat plant response rating ([8]; 500 g ai/ha): 0
- Plant response rating, Blackgrass [9]: 70
- Blackgrass plant response rating [9]: 70
- Plant response rating, Galium [10, 17]: 90
- Galium plant response rating ([10]; 500 g ai/ha): 90
- Plant response rating, Kochia [11, 18]: 90
- Plant response rating, Kochia [11, 19]: 90
- Kochia plant response rating [11, 20]: 90
- Plant response rating, Oat, Wild [12, 18]: 90
- Plant response rating, Oat, Wild [12, 19]: 90
- Oat, Wild plant response rating [12, 20]: 85

SMILES: Cc1cc(C)c2ccccc2c1-c1c(O)cnn(C)c1=O [Compound 51]
- Plant response rating, Barnyardgrass [1, 13]: 20
- Barnyardgrass plant response rating [1, 14]: 80
- Barnyardgrass plant response rating [1, 15]: 30
- Plant response rating, Barnyardgrass [1, 21]: 90
- Plant response rating, Corn [2, 17]: 0
- Corn plant response rating ([2]; 500 g ai/ha): 0
- Plant response rating, Foxtail, Giant [3, 13]: 50
- Foxtail, Giant plant response rating [3, 14]: 80
- Foxtail, Giant plant response rating [3, 15]: 50
- Plant response rating, Foxtail, Giant [3, 21]: 90
- Plant response rating, Kochia [4, 13]: 70
- Kochia plant response rating [4, 14]: 90
- Kochia plant response rating [4, 15]: 0
- Plant response rating, Kochia [4, 21]: 30
- Plant response rating, Pigweed [5, 13]: 70
- Pigweed plant response rating [5, 14]: 90
- Pigweed plant response rating [5, 15]: 70
- Plant response rating, Pigweed [5, 21]: 100
- Plant response rating, Ragweed [6, 13]: 70
- Ragweed plant response rating [6, 14]: 70
- Ragweed plant response rating [6, 15]: 30
- Plant response rating, Ragweed [6, 21]: 80
- Plant response rating, Ryegrass, Italian [7, 13]: 60
- Ryegrass, Italian plant response rating [7, 14]: 90
- Ryegrass, Italian plant response rating [7, 15]: 50
- Plant response rating, Ryegrass, Italian [7, 21]: 90
- Plant response rating, Wheat [8, 17]: 0
- Wheat plant response rating ([8]; 500 g ai/ha): 0
- Plant response rating, Blackgrass [9]: 30
- Blackgrass plant response rating [9]: 60
- Plant response rating, Galium [10, 17]: 90
- Galium plant response rating ([10]; 500 g ai/ha): 100
- Kochia plant response rating [11, 22]: 0
- Plant response rating, Kochia [11, 18]: 50
- Plant response rating, Kochia [11, 19]: 75
- Kochia plant response rating [11, 20]: 15
- Oat, Wild plant response rating [12, 22]: 0
- Plant response rating, Oat, Wild [12, 18]: 5
- Plant response rating, Oat, Wild [12, 19]: 10
- Oat, Wild plant response rating [12, 20]: 5

SMILES: CCCC(=O)Oc1c(C)nn(C)c(=O)c1-c1c(C)sc2c(C)cc(C)cc12 [Compound 106]
- Plant response rating, Barnyardgrass [1, 13]: 70
- Barnyardgrass plant response rating [1, 14]: 90
- Barnyardgrass plant response rating [1, 15]: 80
- Plant response rating, Barnyardgrass [1, 16]: 100
- Plant response rating, Corn [2, 17]: 0
- Plant response rating, Corn [2, 23]: 20
- Plant response rating, Foxtail, Giant [3, 13]: 90
- Plant response rating, Foxtail, Giant [3, 24]: 90
- Foxtail, Giant plant response rating [3, 15]: 100
- Plant response rating, Foxtail, Giant [3, 16]: 100
- Plant response rating, Kochia [4, 13]: 70
- Plant response rating, Kochia [4, 24]: 90
- Kochia plant response rating [4, 15]: 20
- Plant response rating, Kochia [4, 16]: 90
- Plant response rating, Pigweed [5, 13]: 90
- Plant response rating, Pigweed [5, 24]: 90
- Pigweed plant response rating [5, 15]: 100
- Plant response rating, Pigweed [5, 16]: 100
- Plant response rating, Ragweed [6, 13]: 90
- Plant response rating, Ragweed [6, 24]: 90
- Ragweed plant response rating [6, 15]: 90
- Plant response rating, Ragweed [6, 16]: 100
- Plant response rating, Ryegrass, Italian [7, 13]: 90
- Plant response rating, Ryegrass, Italian [7, 24]: 100
- Ryegrass, Italian plant response rating [7, 15]: 100
- Plant response rating, Ryegrass, Italian [7, 16]: 100
- Plant response rating, Wheat [8, 17]: 0
- Plant response rating, Wheat [8, 23]: 20
- Plant response rating, Blackgrass [9]: 90
- Blackgrass plant response rating [9]: 90
- Plant response rating, Galium [10, 17]: 100
- Plant response rating, Galium [10, 23]: 100
- Plant response rating, Kochia [11, 25]: 70
- Plant response rating, Kochia [11, 18]: 80
- Plant response rating, Kochia [11, 19]: 80
- Plant response rating, Oat, Wild [12, 25]: 50
- Plant response rating, Oat, Wild [12, 18]: 90
- Plant response rating, Oat, Wild [12, 19]: 90
